For data set [1], the system named is Vascular smooth muscle cells (BO54). Briefly: Scratch-migration assay with morphological toxicity grading. The data set is classed as cell-based, baboon. Further details: key: - = no migration; +1 = minimal; +2 = mild; +3 = moderate; +4 = marked (maximum density; limit of cell contact inhibition) migration. As for the experimental part: Scratch assays to determine the extent of smooth muscle cell migration inhibition by cytochalasin B were performed in accordance with the following protocol:
Vascular smooth muscle cells (BO54) were derived from explants of baboon aortic smooth muscle, as described in Example 1. The cells were grown in flat bottom, six well tissue culture plates, which hold about 5 ml of medium. The vascular smooth muscle cells were plated at 200,000 cells/well and placed at 37°C in a humidified 5% CO2 incubator for 18 hours. The wells were then scratched with a sterile portion of a single edge razor blade that was held by clamp or pliers and was brought aseptically into contact with the bottom of the well at a 90° angle. The cells from a small area along the scratch were removed by a sterile cotton tipped applicator while the blade was in contact with the bottom of the well. After incubation, the presence of cells in the "scratched" area is indicative of cell migration across the scratch line.
Briefly, a stock solution of cytochalasin B (Sigma Chemical Co.) in dimethyl sulfoxide (DMSO) at 1 mg/ml was prepared. Test dilutions of cytochalasin B or control medium were added. Each experiment included two sets of plates: • A set: Test agent exposure for 1, 3, 6, 8 and 10 days only; and • B set: Test agent exposure for 1, 3, 6, 8 and 10 days, followed by a seven day recovery time with control medium. Both sets of plates were fixed (10% formalin in PBS) and stained (0.02% crystal violet) at the end of the timed exposures. Test concentrations for cytochalasin B were 1, 0.1 and 0.01 µg/ml, and a negative medium control was included. Fresh medium and drug were supplied 3 times per week.
In this Table, "M" indicates Migration Grade, wherein - = no migration; +1 = minimal; +2 = mild; +3 = moderate; and +4 = marked (maximum density; limit of cell contact inhibition) migration of vascular smooth muscle cells into the cleared area adjacent to the scratch. In this Table, "T" denotes a morphological Toxicity Grade, wherein - = no toxicity; +1 = minimal; +2 = mild; +3 = moderate; and +4 = marked toxicity. The migration results are expressed as "Grade in the Cleared Area of the Well / Grade in an Undisturbed Region of the Well." The toxicity values represent a grade for all cells in each well.

Data set [2] concerns Rat adventitial fibroblasts. In words: Proliferation of adventitial fibroblasts. The class given is cell-based. How it is done:
Rat adventitial fibroblasts were cultured as described in Grainger et al., Biochem. J., 283: 403-408, 1992. Briefly, the aortae were treated with collagenase (3 mg/ml) for 30 minutes at 37°C. The tunica adventitia was stripped away from the media. The adventitia was dispersed for 2 hours in elastase (1 mg/ml) and collagenase (3 mg/ml) dissolved in medium M199 (available from ICN/Flow). The cells were then spun out (900 x g, 3 minutes), resuspended in DMEM + 10% FCS and plated out at 8 x 10^4 cells/cm^2 on tissue culture plastic. When the cells reached confluence (after about 10 days), they were subcultured as described for vascular smooth muscle cells. Adventitial fibroblasts were subcultured every 3 days at 1:3 dilution and used between passages 3 and 9.
(§1) Cells were prepared for counting by hemocytometer from triplicate culture dishes as described in Grainger et al., Biochem. J., 277:145-151, 1991. Cells were also counted by direct microscopic observation of gridded culture dishes. The grids were scored into the plastic on the inner surface, so that the cells could not migrate into or out of the area being counted during the experiment. Cells in each of four squares in two separate wells were counted at each time point. All cell counting experiments were repeated on at least three separate cultures.

For data set [3], the system named is Rat vascular smooth muscle cells. Briefly: Proliferation of rat vascular smooth muscle cells by cell counting. The class given is cell-based. How it is done:
Cell culture, DNA synthesis assay and cell counting. Rat vascular smooth muscle cells were cultured after enzymatic dispersion of the aortic media from 12-17 week old Wistar rats as described in Grainger et al., Biochem. J., 277: 145-151, 1991. When the cells reached confluence (after about 6 days) the cells were released with trypsin/EDTA (available from Gibco) and diluted 1:2 in Dulbecco's modification of Eagle's medium (DMEM; available from ICN/Flow) supplemented with 100 U/ml penicillin and 10% fetal calf serum (FCS). The cells were then replated on tissue culture plastic (available from ICN/Flow) at approximately 1 x 10^4 cells/cm^2. The cells were subcultured repeatedly in this way when confluence was attained (about every 4 days), and the cells were used between passages 6 and 12.
as §1
A stock solution of tamoxifen (5 mM; available from ICI Pharmaceuticals) was made up in 10% ethanol (EtOH) and diluted in DMEM and 10% FCS to give the final concentration. The effects of each tamoxifen concentration were compared with the effects observed in control wells containing the same final concentration of the ethanol vehicle. Recombinant TGF-beta (available from Amersham International) was dissolved in 25 mM Tris/Cl to give a 5 microgram/ml stock solution and sterile filtered through a Spinnex Tube (such as a Centrex Disposable Microfilter Unit available from Rainin Instrument Company, Inc., Woburn, MA). Neutralizing antiserum to TGF-beta (BDA19; available from R & D Systems) was reconstituted in sterile MilliQ water (available from Millipore Corporation, Bedford, MA). At 10 micrograms/ml, this antibody completely abolished the activity of 10 ng/ml recombinant TGF-beta on subcultured (8th passage) vascular smooth muscle cells.

Turning to cytochalasin B, the “morphological Toxicity Grade” value in data set [1] (7-day Recovery Post Exposure, 1.0 µg/mL, Day 1) is on record as “+2”; in data set [1] (7-day Recovery Post Exposure, 1.0 µg/mL, Day 3) it was “+1”; in data set [1] (7-day Recovery Post Exposure, 1.0 µg/mL, Day 6), “+3”; in data set [1] (7-day Recovery Post Exposure, 1.0 µg/mL, Day 8) it was “+3”; in data set [1] (7-day Recovery Post Exposure, 1.0 µg/mL, Day 10) it was “+3”; in data set [1] (Continuous Exposure, 0.1 µg/mL, Day 3) it was “+1”. Moreover, the “morphological Toxicity Grade” value in data set [1] (Continuous Exposure, 0.1 µg/mL, Day 6) was “+1”; in data set [1] (Continuous Exposure, 0.1 µg/mL, Day 8), “+1”; in data set [1] (Continuous Exposure, 0.1 µg/mL, Day 10), “+1”; in data set [1] (Continuous Exposure, 1.0 µg/mL, Day 1), “+3”; in data set [1] (Continuous Exposure, 1.0 µg/mL, Day 3), “+3”.

In the case of `CC/C(=C(\c1ccccc1)c1ccc(OCCN(C)C)cc1)c1ccccc1` [tamoxifen, trans-2-[4-(1,2-diphenyl-1-butenyl)phenoxy]-N,N-dimethylethylamine], the “rate of proliferation of subcultured adventitial fibroblasts” value in data set [2] (concentrations of up to 50 micromolar) is on record as “did not reduce the rate of proliferation”. Also, the “ED50 lower for vascular smooth muscle cells than for adventitial fibroblasts” value in data set [2] (selectivity, vascular smooth muscle cells vs adventitial fibroblasts) is given as “at least 10 fold”. For the same molecule, the “cells that had divided by 64 hours” value in data set [3] (33 micromolar) was “more than 90%”. Moreover, the “time taken for 50% of the cells to divide after stimulation by serum” value in data set [3] (33 micromolar, n=3, vehicle 35 +/-3 hours) worked out at 54 ± 2 h. Moreover, in data set [3] (33 micromolar, time lapse photomicroscopy), the “onset of increase in cell number after serum stimulation” value was “no significant increase in cell number in the presence of tamoxifen until after 48 hours”. In addition, the rate of proliferation entry in data set [3] (50 micromolar with 10 micrograms/ml neutralizing antiserum against TGF-beta, 10% FCS) was “proliferated at the same rate as control cells”. Also, the “reduction of the increase in cell number” value in data set [3] (50 micromolar, 96 hours following the addition of serum, n=3, 5760 min, 50 µM) is 66% +/-5.2. In addition, the inhibition at 50 µM in data set [3] (Rattus norvegicus, 50 micromolar, 96 hours following the addition of serum, n=3, read-out: reduction of the increase in cell number) amounted to 66%. Also, the IC (maximal) in data set [3] (Rattus norvegicus, DMEM + 10% FCS, read-out: concentrations giving maximal inhibition of the rate of proliferation) is over 33 µM. Besides, the IC50 in data set [3] (rat ED VSMC, read-out: half-maximal inhibition of proliferation) lay within 2 to 5 µM.

The values above are taken from patent EP1510220B1 (priority 1993, dated 1994).
